Here are results for one compound from patent US20080167379A1, “Ointment” (TAISHO PHARMACEUTICAL CO., LTD., priority 2005, published 2008).

In one data set the test system is NC/Nga mice. The data set is described as follows: Spontaneous scratching action after ointment application. In kind it is in vivo. The note with it: ointment applied to NC/Nga mice; FIG. 2. As to the method:
[FIG. 2] A graph showing the number of scratching action (average value ±SE, n=8) when a present ointment was applied to NC/Nga mice.
(§1) According to the methods described in the literature (Japanese Laid-open patent publication Nos. 2005-247843 and 2005-247842), measurements of the spontaneous action of scratching and the amount of transdermal water evaporation were performed with regard to the compound represented by formula (II). A test was performed, using ointments prepared in the same manner as in Example 4 to have the compound represented by formula (II) at concentrations of 0.0001% and 0.001%.

Data set [1] is described as follows: Storage stability of ointment at 40° C. and 75% RH: content against initial content. In kind it is physicochemical. The following applies: storage at 40° C. and 75% RH 1 month or 25° C. 3 months, Table 5. As to the method: To confirm the storage stability of the compound represented by formula (II) in the preparation, the content (%) of the compound after a storage at 40° C. and 75% RH against the content at the time of initiation, was determined.
To confirm the storage stability of the compound represented by formula (II) in the preparation, the contents (%) of the compound after storages at 40° C. and 75% RH, and at 50° C. against the content at the time of initiation, was determined.
To confirm the storage stability of the compound represented by formula (II) in the preparation, the contents (%) of the compound after a storage at 40° C. and 75% RH, or at 25° C. against the content at the time of initiation, was determined.

In data set [2] the test system is BALB/c mice having the skin barrier destroyed by chafing. The data set is described as follows: Transdermal water evaporation (TEWL) after ointment application. In kind it is in vivo. The note with it: ointment applied to BALB/c mice with skin barrier destroyed by chafing, compared with base only; FIG. 3. As to the method:
[FIG. 3] A graph showing the amount of transdermal evaporation of water (TEWL, average value ±SE, n=8) when a present ointment was applied to BALB/c mice having the skin barrier destroyed by chafing.
as §1

SMILES strings stand for the structures.

`O=C(O)CSCCCC[C@@H]1[C@@H](C#C[C@@H](O)C2CCCCC2)[C@H](O)C[C@H]1Cl` [compound represented by formula (II)]: in the data set with NC/Nga mice, the “number of scratching action” value is given as “a decrease in the scratching action”. Also, the “storage stability (in words)” value in data set [1] is recorded as “stable in the drugs”. For the same compound, the “amount of transdermal evaporation of water (TEWL)” value in data set [2] is recorded as “a decrease in the amount of transdermal water evaporation”.
